Reference: paper PMC5218480 (PLoS ONE, 2017)

Tested on: MV-4-11 cells
Test: Gene expression microarray analysis (Affymetrix PrimeView) and GSEA
Type: cell-based, human
Parameters: RFU PODN (11730768_x_at) / Fold change /veh PODN (11730768_x_at) / RFU LINC00158 (11744669_a_at) / Fold change /veh LINC00158 (11744669_a_at) / RFU DUSP10 (11751237_a_at) / Fold change /veh DUSP10 (11751237_a_at) / RFU ID3 (11757404_x_at) / Fold change /veh ID3 (11757404_x_at) / RFU PLEKHG5 (11737974_s_at) / Fold change /veh PLEKHG5 (11737974_s_at) / RFU LRRC4B (11730491_at) / Fold change /veh LRRC4B (11730491_at) / RFU GIMAP4 (11747438_a_at) / Fold change /veh GIMAP4 (11747438_a_at) / RFU KRT8 (11758183_x_at) / Fold change /veh KRT8 (11758183_x_at) / RFU CNN1 (11734310_a_at) / Fold change /veh CNN1 (11734310_a_at) / RFU VPS37D (11726825_at) / Fold change /veh VPS37D (11726825_at) / RFU C10orf10 (11716522_x_at) / Fold change /veh C10orf10 (11716522_x_at) / RFU KIR2DL2 /// KIR2DL4 /// KIR2DL5A /// KIR2DL5B /// KIR2DS1 /// KIR2DS2 /// KIR2DS3 /// KIR2DS4 /// KIR3DL3 /// KIR3DL3 /// KIR3DS1 (11738374_at) / Fold change /veh KIR2DL2 /// KIR2DL4 /// KIR2DL5A /// KIR2DL5B /// KIR2DS1 /// KIR2DS2 /// KIR2DS3 /// KIR2DS4 /// KIR3DL3 /// KIR3DL3 /// KIR3DS1 (11738374_at) / RFU C1QL1 (11718748_at) / Fold change /veh C1QL1 (11718748_at) / RFU TMPRSS4 (11747572_a_at) / Fold change /veh TMPRSS4 (11747572_a_at) / RFU HAMP (11756126_x_at) / Fold change /veh HAMP (11756126_x_at) / RFU RNFT2 (11725882_a_at) / Fold change /veh RNFT2 (11725882_a_at) / RFU NR4A2 (11747474_a_at) / Fold change /veh NR4A2 (11747474_a_at) / RFU ABCC12 (11746883_a_at) / Fold change /veh ABCC12 (11746883_a_at) / RFU TMEM136 (11760407_x_at) / Fold change /veh TMEM136 (11760407_x_at) / RFU CLDN22 /// WWC2 (11732394_at) / Fold change /veh CLDN22 /// WWC2 (11732394_at) / RFU HLA-DPB1 (11760878_x_at) / Fold change /veh HLA-DPB1 (11760878_x_at) / RFU SPINT1 (11716480_a_at) / Fold change /veh SPINT1 (11716480_a_at) / RFU GAP43 (11754022_s_at) / Fold change /veh GAP43 (11754022_s_at) / RFU A4GNT (11735810_at) / Fold change /veh A4GNT (11735810_at) / RFU PRB3 (11715151_x_at) / Fold change /veh PRB3 (11715151_x_at) / RFU TUBB4B (11761932_at) / Fold change /veh TUBB4B (11761932_at) / RFU CAPN14 (11732068_a_at) / Fold change /veh CAPN14 (11732068_a_at) / RFU TMCC2 (11721928_a_at) / Fold change /veh TMCC2 (11721928_a_at) / RFU IRGQ (11745062_a_at) / Fold change /veh IRGQ (11745062_a_at) / RFU FAM174B (11720279_a_at) / Fold change /veh FAM174B (11720279_a_at) / RFU TMPRSS4 (11748680_a_at) / Fold change /veh TMPRSS4 (11748680_a_at) / RFU FAM212B (11763350_a_at) / Fold change /veh FAM212B (11763350_a_at) / RFU PLEKHG5 (11743358_a_at) / Fold change /veh PLEKHG5 (11743358_a_at) / RFU ZSCAN30 (11745921_a_at) / Fold change /veh ZSCAN30 (11745921_a_at) / RFU CMKLR1 (11741424_a_at) / Fold change /veh CMKLR1 (11741424_a_at) / RFU LOC101060620 /// MAPK8IP1 (11723275_at) / Fold change /veh LOC101060620 /// MAPK8IP1 (11723275_at) / RFU SPTSSB (11747773_x_at) / Fold change /veh SPTSSB (11747773_x_at) / RFU PRSS12 (11739890_at) / Fold change /veh PRSS12 (11739890_at) / RFU BIN1 (11741810_x_at) / Fold change /veh BIN1 (11741810_x_at) / RFU WNT11 (11732464_a_at) / Fold change /veh WNT11 (11732464_a_at) / RFU C10orf10 (11716521_a_at) / Fold change /veh C10orf10 (11716521_a_at) / RFU C5orf56 (11738089_at) / Fold change /veh C5orf56 (11738089_at) / RFU CYB561 (11721691_x_at) / Fold change /veh CYB561 (11721691_x_at) / RFU ANKRD19P (11752326_a_at) / Fold change /veh ANKRD19P (11752326_a_at) / RFU OR2T12 /// OR2T33 /// OR2T8 (11738714_s_at) / Fold change /veh OR2T12 /// OR2T33 /// OR2T8 (11738714_s_at) / RFU VCAN (11748164_a_at) / Fold change /veh VCAN (11748164_a_at) / RFU JSRP1 (11732532_at) / Fold change /veh JSRP1 (11732532_at) / RFU KRTAP10-11 (11738290_x_at) / Fold change /veh KRTAP10-11 (11738290_x_at) / RFU MYO3A (11730013_a_at) / Fold change /veh MYO3A (11730013_a_at) / RFU EBF3 (11725865_a_at) / Fold change /veh EBF3 (11725865_a_at) / RFU CAMK2N1 (11719241_x_at) / Fold change /veh CAMK2N1 (11719241_x_at) / RFU C5orf56 (11738088_a_at) / Fold change /veh C5orf56 (11738088_a_at) / RFU OLFML3 (11715873_a_at) / Fold change /veh OLFML3 (11715873_a_at) / RFU LOC100653217 /// NTM (11731650_a_at) / Fold change /veh LOC100653217 /// NTM (11731650_a_at) / RFU MAPK11 (11762145_a_at) / Fold change /veh MAPK11 (11762145_a_at) / RFU FIZ1 (11724087_x_at) / Fold change /veh FIZ1 (11724087_x_at) / RFU OASL (11726364_x_at) / Fold change /veh OASL (11726364_x_at) / RFU SOX15 (11748057_x_at) / Fold change /veh SOX15 (11748057_x_at) / RFU CD79A (11719716_a_at) / Fold change /veh CD79A (11719716_a_at) / RFU HIST1H1D (11736915_at) / Fold change /veh HIST1H1D (11736915_at) / RFU CASKIN2 (11723855_a_at) / Fold change /veh CASKIN2 (11723855_a_at) / RFU LOC730098 (11760151_x_at) / Fold change /veh LOC730098 (11760151_x_at) / RFU OR4N2 (11742367_at) / Fold change /veh OR4N2 (11742367_at) / RFU PRRT2 (11749266_a_at) / Fold change /veh PRRT2 (11749266_a_at) / RFU SNX32 (11753110_a_at) / Fold change /veh SNX32 (11753110_a_at) / RFU CDHR5 (11726645_a_at) / Fold change /veh CDHR5 (11726645_a_at) / RFU RCAN1 (11760418_a_at) / Fold change /veh RCAN1 (11760418_a_at) / RFU FAM167A (11723789_a_at) / Fold change /veh FAM167A (11723789_a_at) / RFU FAM26E (11764081_at) / Fold change /veh FAM26E (11764081_at) / RFU ISYNA1 (11749810_s_at) / Fold change /veh ISYNA1 (11749810_s_at) / RFU ACY1 (11761880_at) / Fold change /veh ACY1 (11761880_at) / RFU 11764098_at / Fold change /veh 11764098_at / RFU SAMD14 (11745864_x_at) / Fold change /veh SAMD14 (11745864_x_at) / RFU NPB (11741838_a_at) / Fold change /veh NPB (11741838_a_at) / RFU TMPRSS6 (11731388_a_at) / Fold change /veh TMPRSS6 (11731388_a_at) / RFU KRTAP10-2 (11738614_at) / Fold change /veh KRTAP10-2 (11738614_at) / RFU ARHGAP8 /// PRR5-ARHGAP8 (11727945_x_at) / Fold change /veh ARHGAP8 /// PRR5-ARHGAP8 (11727945_x_at) / RFU KRTAP5-7 /// NADSYN1 (11734609_at) / Fold change /veh KRTAP5-7 /// NADSYN1 (11734609_at) / RFU RASL12 (11751679_a_at) / Fold change /veh RASL12 (11751679_a_at) / RFU CDKN2B (11736163_a_at) / Fold change /veh CDKN2B (11736163_a_at) / RFU PRF1 (11729649_at) / Fold change /veh PRF1 (11729649_at) / RFU, ZNF638 /// ZNF638-IT1 / Fold change vs veh, ZNF638 /// ZNF638-IT1 / RFU, PANK3 / Fold change vs veh, PANK3 / RFU, SH3YL1 / Fold change vs veh, SH3YL1 / RFU, ZEB2 / Fold change vs veh, ZEB2 / RFU, NRIP1 / Fold change vs veh, NRIP1 / RFU, PTTG1IP / Fold change vs veh, PTTG1IP / RFU, CAPN2 / Fold change vs veh, CAPN2 / RFU, MED14 / Fold change vs veh, MED14 / RFU, SNORA58 / Fold change vs veh, SNORA58 / RFU, C1orf63 / Fold change vs veh, C1orf63 / RFU, LRRFIP1 / Fold change vs veh, LRRFIP1 / RFU, NDUFAF7 / Fold change vs veh, NDUFAF7 / RFU, SLC12A2 / Fold change vs veh, SLC12A2 / RFU, IBTK / Fold change vs veh, IBTK / RFU, ESF1 / Fold change vs veh, ESF1 / Fold change vs veh, TMEM50B / RFU, TAOK1 / Fold change vs veh, TAOK1 / RFU, ACBD3 / Fold change vs veh, ACBD3 / RFU, TMA16 / Fold change vs veh, TMA16 / RFU, RWDD3 / Fold change vs veh, RWDD3 / RFU, BCAT1 / Fold change vs veh, BCAT1 / RFU, EDEM3 / Fold change vs veh, EDEM3 / RFU, TMEM33 / Fold change vs veh, TMEM33 / RFU, WDR75 / Fold change vs veh, WDR75 / RFU, AHCTF1 / Fold change vs veh, AHCTF1 / RFU, TFRC / Fold change vs veh, TFRC / RFU, ZDHHC17 / Fold change vs veh, ZDHHC17 / RFU, NOM1 / Fold change vs veh, NOM1 / RFU, ARL8B / Fold change vs veh, ARL8B / RFU, ZBTB11 / Fold change vs veh, ZBTB11 / RFU, TAMM41 / Fold change vs veh, TAMM41 / RFU, KIAA1704 /// LOC100996395 / Fold change vs veh, KIAA1704 /// LOC100996395 / RFU, ING1 / Fold change vs veh, ING1 / RFU, TRMT61B / Fold change vs veh, TRMT61B / RFU, FUBP3 / Fold change vs veh, FUBP3 / RFU, TP53 / Fold change vs veh, TP53 / RFU, TNKS2 / Fold change vs veh, TNKS2 / RFU, ZFP14 / Fold change vs veh, ZFP14 / RFU, ACTR2 / Fold change vs veh, ACTR2 / RFU, PPP3R1 / Fold change vs veh, PPP3R1 / RFU, PIK3R1 / Fold change vs veh, PIK3R1 / RFU, HNRNPA1 / Fold change vs veh, HNRNPA1 / RFU, RNF170 / Fold change vs veh, RNF170 / RFU, ZNF28 / Fold change vs veh, ZNF28 / RFU, RNGTT / Fold change vs veh, RNGTT / RFU, OGT / Fold change vs veh, OGT / RFU, BRD1 / Fold change vs veh, BRD1 / RFU, MARS / Fold change vs veh, MARS / RFU, ZNF655 / Fold change vs veh, ZNF655 / RFU, FAHD1 / Fold change vs veh, FAHD1 / RFU, BDP1 / Fold change vs veh, BDP1 / RFU, LRRCC1 / Fold change vs veh, LRRCC1 / RFU, ARID1A / Fold change vs veh, ARID1A / RFU, ZNF146 / Fold change vs veh, ZNF146 / RFU, ZNF330 / Fold change vs veh, ZNF330 / RFU, GPN3 / Fold change vs veh, GPN3 / RFU, C9orf123 / Fold change vs veh, C9orf123 / RFU, N4BP2L2 / Fold change vs veh, N4BP2L2 / RFU, ARFIP1 / Fold change vs veh, ARFIP1 / RFU, FAM179B / Fold change vs veh, FAM179B / RFU, BCL10 / Fold change vs veh, BCL10 / RFU, UHRF1BP1L / Fold change vs veh, UHRF1BP1L / RFU, BET1 / Fold change vs veh, BET1 / RFU, CNOT2 / Fold change vs veh, CNOT2 / RFU, ZNF268 / Fold change vs veh, ZNF268 / Fold change vs veh, ZNF507 / RFU, DGCR2 / Fold change vs veh, DGCR2 / RFU, WDSUB1 / Fold change vs veh, WDSUB1 / Fold change vs veh, HSP90B1 /// MIR3652 / RFU, ADSS / Fold change vs veh, ADSS / RFU, GK / Fold change vs veh, GK / RFU, ZNF148 / Fold change vs veh, ZNF148 / RFU, TAF9 / Fold change vs veh, TAF9 / RFU, SLC1A5 / Fold change vs veh, SLC1A5 / RFU, SLMO2 / Fold change vs veh, SLMO2 / RFU, ABCC4 / Fold change vs veh, ABCC4 / RFU, LOC101060439 /// RAP1B / Fold change vs veh, LOC101060439 /// RAP1B / RFU, RFX7 / Fold change vs veh, RFX7 / RFU, GTPBP10 / Fold change vs veh, GTPBP10 / RFU, CNEP1R1 / Fold change vs veh, CNEP1R1 / RFU, BIVM-ERCC5 /// ERCC5 / Fold change vs veh, BIVM-ERCC5 /// ERCC5 / RFU, ILF3 / Fold change vs veh, ILF3 / RFU 11762660_at / Fold change /veh 11762660_at / RFU VCAN (11757783_s_at) / Fold change /veh VCAN (11757783_s_at) / RFU DDX43 (11728927_at) / Fold change /veh DDX43 (11728927_at) / RFU KRT8 (11758188_x_at) / Fold change /veh KRT8 (11758188_x_at) / RFU NKD1 (11759106_at) / Fold change /veh NKD1 (11759106_at) / RFU SRD5A1 (11742802_a_at) / Fold change /veh SRD5A1 (11742802_a_at) / RFU TPSAB1 /// TPSB2 (11721975_s_at) / Fold change /veh TPSAB1 /// TPSB2 (11721975_s_at) / RFU GSTM3 (11746129_a_at) / Fold change /veh GSTM3 (11746129_a_at) / RFU IL23R (11737362_x_at) / Fold change /veh IL23R (11737362_x_at) / RFU TMEM51 (11727254_a_at) / Fold change /veh TMEM51 (11727254_a_at) / RFU PIWIL2 (11732686_x_at) / Fold change /veh PIWIL2 (11732686_x_at) / RFU ORM1 (11744905_x_at) / Fold change /veh ORM1 (11744905_x_at) / RFU CCDC152 (11743942_at) / Fold change /veh CCDC152 (11743942_at) / RFU ECM1 (11717891_a_at) / Fold change /veh ECM1 (11717891_a_at) / RFU IL23R (11748794_a_at) / Fold change /veh IL23R (11748794_a_at) / RFU TNFAIP8L3 (11732012_x_at) / Fold change /veh TNFAIP8L3 (11732012_x_at) / RFU MBOAT4 (11741988_at) / Fold change /veh MBOAT4 (11741988_at) / RFU 11764193_at / Fold change /veh 11764193_at / RFU TMEM53 (11763286_at) / Fold change /veh TMEM53 (11763286_at) / RFU MAGEB2 (11727129_at) / Fold change /veh MAGEB2 (11727129_at) / RFU TMEM200A (11744735_a_at) / Fold change /veh TMEM200A (11744735_a_at) / RFU CCDC152 (11751479_a_at) / Fold change /veh CCDC152 (11751479_a_at) / RFU FAM211A (11726209_a_at) / Fold change /veh FAM211A (11726209_a_at) / RFU RGS16 (11746705_a_at) / Fold change /veh RGS16 (11746705_a_at) / RFU VCAN (11755009_s_at) / Fold change /veh VCAN (11755009_s_at) / RFU RHOB (11743442_s_at) / Fold change /veh RHOB (11743442_s_at) / RFU RGS16 (11720943_a_at) / Fold change /veh RGS16 (11720943_a_at) / RFU RGS16 (11720944_at) / Fold change /veh RGS16 (11720944_at) / RFU, VPS4B / Fold change vs veh, VPS4B / RFU, CREB1 / Fold change vs veh, CREB1 / RFU, DNAJC13 / Fold change vs veh, DNAJC13 / RFU, GNAQ / Fold change vs veh, GNAQ / RFU, CDK5R1 / Fold change vs veh, CDK5R1 / RFU, ZRANB3 / Fold change vs veh, ZRANB3 / RFU, CUL4A / Fold change vs veh, CUL4A / RFU, CCNY / Fold change vs veh, CCNY / RFU, UFL1 / Fold change vs veh, UFL1 / RFU, COG3 / Fold change vs veh, COG3 / RFU, DIAPH2 / Fold change vs veh, DIAPH2 / RFU, SKA2 / Fold change vs veh, SKA2 / RFU, AFF3 / Fold change vs veh, AFF3 / RFU, LMF1 / Fold change vs veh, LMF1 / RFU, IPO11 / Fold change vs veh, IPO11 / RFU, DFFB / Fold change vs veh, DFFB / RFU, FOXP1 / Fold change vs veh, FOXP1 / RFU, CARD8 / Fold change vs veh, CARD8 / RFU, STRN3 / Fold change vs veh, STRN3 / RFU, ADK / Fold change vs veh, ADK / RFU, RASSF2 / Fold change vs veh, RASSF2 / RFU, WIPF1 / Fold change vs veh, WIPF1 / RFU, LARP1B / Fold change vs veh, LARP1B / RFU, RASA1 / Fold change vs veh, RASA1 / RFU, RB1 / Fold change vs veh, RB1 / RFU, PPFIA1 / Fold change vs veh, PPFIA1 / RFU, MAT2A / Fold change vs veh, MAT2A / RFU, CCT5 / Fold change vs veh, CCT5 / RFU, WDR92 / Fold change vs veh, WDR92 / RFU, CUX1 / Fold change vs veh, CUX1 / RFU, TTC7A / Fold change vs veh, TTC7A / RFU, TMEM135 / Fold change vs veh, TMEM135 / RFU, DEPTOR / Fold change vs veh, DEPTOR / RFU, CPM / Fold change vs veh, CPM / RFU, DNAJB6 / Fold change vs veh, DNAJB6 / RFU, CACNA2D3 / Fold change vs veh, CACNA2D3 / RFU, DTX4 / Fold change vs veh, DTX4 / RFU, TFCP2 / Fold change vs veh, TFCP2 / RFU, GMCL1 /// GMCL1P1 / Fold change vs veh, GMCL1 /// GMCL1P1 / RFU, AEBP2 / Fold change vs veh, AEBP2 / RFU, SNHG1 /// SNORD22 /// SNORD25 /// SNORD26 /// SNORD27 /// SNORD28 /// SNORD29 /// SNORD31 / Fold change vs veh, SNHG1 /// SNORD22 /// SNORD25 /// SNORD26 /// SNORD27 /// SNORD28 /// SNORD29 /// SNORD31 / Fold change (Aza/veh), C12orf56 (ProbeSet 11735607_a_at) / Fold change (ACY-1035/veh), C12orf56 (ProbeSet 11735607_a_at) / Fold change (Aza/veh), FGFR1OP (ProbeSet 11751329_s_at) / Fold change (ACY-1035/veh), FGFR1OP (ProbeSet 11751329_s_at) / Fold change (Aza/veh), VPS36 (ProbeSet 11739960_a_at) / Fold change (ACY-1035/veh), VPS36 (ProbeSet 11739960_a_at) / RFU SYPL1 (11715823_x_at) / Fold change /veh SYPL1 (11715823_x_at) / RFU IGFBP7 (11715501_s_at) / Fold change /veh IGFBP7 (11715501_s_at) / RFU REEP3 (11722064_at) / Fold change /veh REEP3 (11722064_at) / RFU IGLL1 (11728026_x_at) / Fold change /veh IGLL1 (11728026_x_at): dose or concentration left out as unconfirmed
Conditions: ProbeSet 11719817_x_at; LIST B

Question: With Nc1ccc(-c2cccs2)cc1NC(=O)c1ccc2c(c1)cc(C1CC1)n2CCN1CCOCC1 [ACY-1035] as the compound, how does the “RFU, BET1” value read?
Answer: 86.19 RFU
